According to patent US9174994B2, “Enhanced treatment regimens using mTor inhibitors” (INTELLIKINE LLC, priority 2011, dated 2015):

Legend:
[1] = Phase I clinical trial: plasma pharmacokinetics; assay type: in vivo, human
Method: (§1) Adult patients with histologically confirmed advanced solid tumors were enrolled in a 3+3 dose escalation Phase I study evaluating 3 intermittent schedules of administration for compound A: QW (once weekly), QD×3d QW (3 days on 4 days off), and QD×5d QW (5 days on 2 days off), in comparison with daily dosing (QD). Safety, maximum tolerated dose (MTD), pharmacokinetics (PK) and preliminary antitumor activity were evaluated.

advanced solid tumors = assay: Phase I clinical trial: preliminary antitumor activity; assay type: in vivo, human; details: patients with lung and renal cancer
Method: as §1

SMILES: CC(C)n1nc(-c2ccc3oc(N)nc3c2)c2c(N)ncnc21 [compound A]
- Time per week (hrs) above 100 nM plasma conc. ([1]; 6 mg QD): 20 h
- Time per week (hrs) above 100 nM plasma conc. ([1]; 10 mg Q5D): 25 h
- Time per week (hrs) above 100 nM plasma conc. ([1]; 13 mg Q5D): 30 h
- Time per week (hrs) above 100 nM plasma conc. ([1]; 16 mg Q3D): 30 h
- Time per week (hrs) above 100 nM plasma conc. ([1]; 20 mg Q3D): 35 h
- Time per week (hrs) above 100 nM plasma conc. ([1]; 30 mg QW): 15 h
- Time per week (hrs) above 100 nM plasma conc. ([1]; 40 mg QW): 20 h
- Plasma exposures (Cmax and AUC0-24): dose dependence ([1]; following oral doses): dose-linear plasma PK
- Preliminary anti-tumor activity (advanced solid tumors): Preliminary anti-tumor activity was seen
